Data as given in patent publication US4891369A, “2β-Substituted-methylpenicillanic acid derivatives, and salts and esters thereof” (Taiho Pharmaceutical Company, Limited, priority 1986, dated 1990).
≈ marks a conversion by molar mass, not a printed value.

What was measured:
Test in all cases: MIC assay (Japan Society of Chemotherapy), antibacterial activity
Assay type in all cases: cell-based
S. aureus 54K = conditions: Staphylococcus aureus, 20 h, read-out: MIC piperacillin alone
Protocol: (§1) The minimal inhibitory concentration (MIC) of piperacillin in the presence of 5 μg/ml of the compounds of the present invention against various bacteria were determined by the MIC assay method of Japan Society of Chemotherapy (Chemotherapy 29(1), pp. 76-79, 1981).
(§2) The MIC value of the various compounds according to the invention and piperacillin, as used singly, were also determined. Each test strain was grown on Mueller Hinton Medium (Difco) and used for inoculation after dilution to concentration of 10^6 CFU/ml. The assay media (Mueller Hintoon Medium) containing piperacillin and the compound of the invention in a series of concentrations were inoculated with the test strain and incubated at 37° C. for 20 hours.
(§3) The minimum concentration at which no more than 5 colonies were observed was determined. […] All the test strains used in the above assay were β-lactamase producers.

P. mirabillis 60 = conditions: piperacillin used singly; 10^6 CFU/ml; 37° C., 20 hours; read-out: MIC piperacillin alone
Protocol: as §1, §2, §3

E. coli TEM1 = conditions: Escherichia coli, TEM1, 20 h, read-out: MIC piperacillin alone
Protocol: as §1, §2, §3

Serratia 200L = conditions: piperacillin used singly, 10^6 CFU/ml, 37° C., 20 hours, read-out: MIC piperacillin alone
Protocol: as §1, §2, §3

P. aeruginosa PSE3 = conditions: Pseudomonas aeruginosa, piperacillin used singly, 10^6 CFU/ml, 37° C., 20 hours, read-out: MIC piperacillin alone
Protocol: as §1, §2, §3

P. aeruginosa PSE4 = conditions: Pseudomonas aeruginosa, piperacillin used singly, 10^6 CFU/ml, 37° C., 20 hours, read-out: MIC piperacillin alone
Protocol: as §1, §2, §3

Citrobacter 962L = conditions: piperacillin used singly, 10^6 CFU/ml, 37° C., 20 hours, read-out: MIC piperacillin alone
Protocol: as §1, §2, §3

E. coli 1573E = conditions: Escherichia coli, piperacillin used singly, 10^6 CFU/ml, 37° C., 20 hours, read-out: MIC piperacillin alone
Protocol: as §1, §2, §3

E. coli SHV1 = conditions: Escherichia coli, SHV1, 20 h, read-out: MIC piperacillin alone
Protocol: as §1, §2, §3

K. pneumoniae 101L = conditions: Klebsiella pneumoniae, piperacillin used singly, 10^6 CFU/ml, 37° C., 20 hours, read-out: MIC piperacillin alone
Protocol: as §1, §2, §3

Citrobacter 2046E = conditions: piperacillin used singly, 10^6 CFU/ml, 37° C., 20 hours, read-out: MIC piperacillin alone
Protocol: as §1, §2, §3

E. coli OXA3 = conditions: Escherichia coli, OXA3, 20 h, read-out: MIC piperacillin alone
Protocol: as §1, §2, §3

CCN1CCN(C(=O)N[C@@H](C(=O)N[C@@H]2C(=O)N3[C@@H]2SC(C)(C)[C@@H]3C(=O)O)c2ccccc2)C(=O)C1=O [piperacillin]
MIC (S. aureus 54K): 3.13 µg/mL (≈ 6.05 µM)
MIC (P. mirabillis 60): 1.56 µg/mL (≈ 3.01 µM)
MIC (E. coli TEM1): 100 µg/mL (≈ 193 µM)
MIC (Serratia 200L): 25 µg/mL (≈ 48.3 µM)
MIC (P. aeruginosa PSE3): 50 µg/mL (≈ 96.6 µM)
MIC (P. aeruginosa PSE4): 200 µg/mL (≈ 386 µM)
MIC (Citrobacter 962L): 100 µg/mL (≈ 193 µM)
MIC (E. coli 1573E): 6.25 µg/mL (≈ 12.1 µM)
MIC (E. coli SHV1): 25 µg/mL (≈ 48.3 µM)
MIC (K. pneumoniae 101L): 100 µg/mL (≈ 193 µM)
MIC (Citrobacter 2046E): 25 µg/mL (≈ 48.3 µM)
MIC (E. coli OXA3): 3.13 µg/mL (≈ 6.05 µM)
